In patent EP0587374A2, “Sulfated sterol glycosides and their use against viral infections” (VIROSTAT (NA) NV, priority 1992, dated 1994):
Where two headings read alike, the source gives them in different places.

Assays:
[1] = system: HIV-1
[2] = system: Peripheral blood lymphocytes; assay: In vitro cytotoxicity, Trypan Blue exclusion after 3 days of culture; details: 3 days, means of 4 counts
Description: Peripheral blood lymphocytes were prepared from normal blood. Cells were cultured for 3 days in complete medium [(RPMI, a commercially available so-called standard salt solution) + 10 % foetal calf serum (FCS) + […]] in the presence/absence of phytohemagglutinin (PHA). Duplicate wells were set up. Incubation was at 37°C and 5 % CO₂.
On the third day, cell viabilities were determined using the Trypan Blue exclusion test.
Those products which were water soluble, were made up at 8 mg/mℓ stocks in sterile distilled water and diluted 1:10 in RPMI medium and again diluted 1:10 directly in the wells containing the cells in complete medium. The final concentrations were thus 80 µg/mℓ. For the lower dilutions, the 8 mg/mℓ stock was diluted 1:2 or 1:4 or 1:8 in water before being diluted in the RPMI medium.
For those products which were DMSO-soluble, the stocks were made'up at 8 mg/mℓ in 100 % DMSO. This stock was diluted 1:10 in 100 % FCS and diluted 1:10 directly in the wells containing the cells in RPMI medium only. The final concentrations were thus 10 % FCS and 1 % DMSO. For the lower dilutions, the 8 mg/mℓ stock was diluted 1:2 or 1:4 or 1:8 with DMSO before the FCS dilution step.
This stock was diluted in water to yield a working stock of 2 mg/mℓ. The 2 mg/ml stock was diluted 1:20 or 1:10 or 1:5 or 1:2.5 in water and again 1:10 in the wells to give the 10, 20, 40 or 80 µg/mℓ final concentrations respectively.

[3] = test concentration 10 µg/mℓ, duration 6 days
[4] = test concentration 25 µg/mℓ, duration 6 days
[5] = test concentration 50 µg/mℓ, duration 6 days

Cc1cn([C@H]2C[C@H](N=[N+]=[N-])[C@@H](CO)O2)c(=O)[nH]c1=O [AZT, reference compound]
inhibition of P24 protein production ([1]; concentration 10 ng/mℓ, test of Table 3): 100%

CC[C@H](CC[C@@H](C)[C@H]1CC[C@H]2[C@@H]3CC=C4C[C@@H](O)CC[C@]4(C)[C@H]3CC[C@]12C)C(C)C [BSS, β-Sitosterol, reference compound]
% Viability ([2]; Cells + PHA + 1.25 µg/mℓ): 89% | % Viability ([2]; Cells + PHA + 2.5 µg/mℓ): 81% | % Viability ([2]; Cells + PHA + 5 µg/mℓ): 92% | % Viability ([2]; Cells + PHA + 10 µg/mℓ): 82% | % INHIBITION OF P24 PROTEIN PRODUCTION [1, 3]: 0% | % INHIBITION OF P24 PROTEIN PRODUCTION ([1]; test concentration 10 µg/mℓ, duration 6 days, listed as LL2): no significant inhibition

CC[C@H](CC[C@@H](C)[C@H]1CC[C@H]2[C@@H]3CC=C4C[C@@H](OS(=O)(=O)O)CC[C@]4(C)[C@H]3CC[C@]12C)C(C)C [BSS-SO₄⁻, β-Sitosteryl sulphate, reference compound]
% INHIBITION OF P24 PROTEIN PRODUCTION [1, 3]: 0% | % INHIBITION OF P24 PROTEIN PRODUCTION ([1]; test concentration 10 µg/mℓ, duration 6 days, listed as LL1): no significant inhibition

CC[C@H](CC[C@@H](C)[C@H]1CC[C@H]2[C@@H]3CC=C4C[C@@H](O[C@@H]5O[C@H](CO)[C@@H](O)[C@H](O)[C@H]5O)CC[C@]4(C)[C@H]3CC[C@]12C)C(C)C [BSSG, β-Sitosteryl β-D-glucoside, reference compound]
% INHIBITION OF P24 PROTEIN PRODUCTION [1, 3]: 0% | % INHIBITION OF P24 PROTEIN PRODUCTION ([1]; test concentration 10 µg/mℓ, duration 6 days, listed as LL4): no significant inhibition

CC(C)CCC[C@@H](C)[C@H]1CC[C@H]2[C@@H]3CC=C4C[C@@H](O)CC[C@]4(C)[C@H]3CC[C@]12C [CHO, Cholesterol, reference compound]
% INHIBITION OF P24 PROTEIN PRODUCTION [1, 3]: 3% | % INHIBITION OF P24 PROTEIN PRODUCTION ([1]; test concentration 10 µg/mℓ, duration 6 days, listed as LL5): no significant inhibition

CC(C)CCC[C@@H](C)[C@H]1CC[C@H]2[C@@H]3CC=C4C[C@@H](OS(=O)(=O)O)CC[C@]4(C)[C@H]3CC[C@]12C [CHO-SO₄⁻, Cholesteryl sulphate, reference compound]
% INHIBITION OF P24 PROTEIN PRODUCTION [1, 3]: 0% | % INHIBITION OF P24 PROTEIN PRODUCTION ([1]; test concentration 10 µg/mℓ, duration 6 days, listed as LL6): no significant inhibition

CC(C)CCC[C@@H](C)[C@H]1CC[C@H]2[C@@H]3CC=C4C[C@@H](O[C@@H]5O[C@H](COS(=O)(=O)[O-])[C@@H](OS(=O)(=O)[O-])[C@H](OS(=O)(=O)[O-])[C@H]5OS(=O)(=O)[O-])CC[C@]4(C)[C@H]3CC[C@]12C.[Na+].[Na+].[Na+].[Na+] [CHOG-(SO₄⁻)₄, Cholesteryl β-D-glucoside tetra-sulphate]
% INHIBITION OF P24 PROTEIN PRODUCTION ([1]; test concentration 12.5 µg/mℓ, duration 4 days): 19% | % INHIBITION OF P24 PROTEIN PRODUCTION ([1]; test concentration 25 µg/mℓ, duration 4 days): 18% | % INHIBITION OF P24 PROTEIN PRODUCTION ([1]; test concentration 50 µg/mℓ, duration 4 days): 49% | % INHIBITION OF P24 PROTEIN PRODUCTION ([1]; test concentration 100 µg/mℓ, duration 4 days): 86%

C[C@@H]1CC[C@@]2(OC1)O[C@H]1C[C@H]3[C@@H]4CC=C5C[C@@H](O[C@@H]6O[C@H](COS(=O)(=O)[O-])[C@@H](OS(=O)(=O)[O-])[C@H](OS(=O)(=O)[O-])[C@H]6OS(=O)(=O)[O-])CC[C@]5(C)[C@H]4CC[C@]3(C)[C@H]1[C@@H]2C.[Na+].[Na+].[Na+].[Na+] [DG-(SO₄⁻)₄, Diosgenyl β-D-glucoside tetra-sulphate]
anti-HIV-1 effect (in words) ([1]; in terms of P24 protein production, Tables 1-3): marked anti-HIV-1 effects | % INHIBITION OF P24 PROTEIN PRODUCTION [1, 4]: 60% | % INHIBITION OF P24 PROTEIN PRODUCTION [1, 5]: 100%

CCCCCCCCCCCCOS(=O)(=O)[O-].[Na+] [SODIUM n-DODECYL SULPHATE, reference compound]
% INHIBITION OF P24 PROTEIN PRODUCTION [1, 4]: 0% | % INHIBITION OF P24 PROTEIN PRODUCTION [1, 5]: 45%

CCCCCCCCO[C@@H]1O[C@H](COS(=O)(=O)O)[C@@H](OS(=O)(=O)O)[C@H](OS(=O)(=O)O)[C@H]1OS(=O)(=O)O [n-OCTYL GLUCOSIDE TETRA-SULPHATE, reference compound]
% INHIBITION OF P24 PROTEIN PRODUCTION [1, 4]: 0% | % INHIBITION OF P24 PROTEIN PRODUCTION [1, 5]: 0%
